# Experimental data as given in paper PMC11431997, “Baicalin Inhibits FIPV Infection In Vitro by Modulating the PI3K-AKT Pathway and Apoptosis Pathway” (International Journal of Molecular Sciences, 2024).
# Where two headings read alike, the source gives them in different places.
# Assays:
# FIPV (BJ-01) = assay: Inhibitory effects of compounds on FIPV-infected cells (compound and FIPV added simultaneously, CCK-8); format: cell-based, feline infectious peritonitis virus; conditions: 72 h; for inhibition of FIPV infection (MIR): compound at MNTC added with 100 TCID50 FIPV to CRFK cells
# Method: According to previous methods, CRFK cells were seeded in 96-well cell culture plates at a density of 1 × 10^4 cells/well and cultured at 37 °C in 5% CO2 until the cell density was greater than 90%. After the cells were washed twice with PBS, 50 μL of test compound and 50 μL of FIPV were added to each well simultaneously (at the same time, a cell control group with only 100 μL of MM and a viral control group with only 100 μL of FIPV were added). There were 3 replicate wells for each compound and group. After 72 h of incubation at 37 °C and 5% CO2, the liquid in the plate was discarded, and the cells were washed twice with PBS. The MIR of the compounds to the virus was calculated according to the instructions of the Cell Counting Kit-8. Afterwards, the compounds with MIR > 50% were diluted to 8 concentrations with MM, and the above process was repeated. Then, the EC50 values of the compounds were calculated with GraphPad Prism 10.
# CRFK cells = assay: Cytotoxicity assay of the compounds (CCK-8); format: cell-based, feline
# Method: (§1) CRFK cells were seeded in 96-well cell culture plates at a density of 1 × 10^4 cells/well and incubated at 37 °C with 5% CO2 until the cell density reached more than 90%. Then, the medium was discarded, and the cells were washed twice with PBS. The compound to be tested was diluted in 10 successive gradients with MM at a 2-fold multiplicity (at the same time, there was a cell control group of 100 μL of MM, and 3 replicate wells were set for each concentration and group) and incubated at 37 °C with 5% CO2 for 72 h; then, the liquid in the plate was discarded and washed twice with PBS. Afterwards, the cytopathic ratios (CRs) of the compounds to cells were calculated according to the instructions of the Cell Counting Kit-8 (MCE, NJ, USA), and the CC50s of the compounds and the MNTCs at which the compounds could survive more than 90% of the cells were calculated using GraphPad Prism 10. In subsequent experiments, the final concentrations of the compounds after addition were the MNTCs of the compounds unless otherwise specified.
# [1] = Cytotoxicity assay of the compounds (CCK-8); format: cell-based, feline; conditions: cat
# Method: as §1
# [2] = CRFK cells, 72 h, CCK-8, concentration at which more than 90% of the cells survive
# [3] = CRFK cells, 72 h, CCK-8, read-out: CC50
Structure (SMILES),inhibition of FIPV infection (MIR) (FIPV (BJ-01)),"MNTC (maximum noncytotoxic concentration) (CRFK cells; cat, 72 h) [µg/mL]",CC50 at 72 h [1] [µg/mL],MNTC (maximum noncytotoxic concentration) (CRFK cells; [2]) [µg/mL],"CC50 at 72 h [1, 3] [µg/mL]",also measured
Cc1cccc2c3c(ccc12)C1=C(C(=O)C3=O)[C@@H](C)CO1 [Dihydrotanshinone I],less than 20%,246.4,426,,,
O=c1c(-c2ccc(O)cc2)coc2c([C@@H]3O[C@H](CO)[C@@H](O)[C@H](O)[C@H]3O)c(O)ccc12 [Puerarin],less than 20%,83.77,209,,,
O=C(/C=C/c1ccc(O)c(O)c1)O[C@@H]1C[C@](O)(C(=O)O)C[C@@H](O)[C@H]1O [Chlorogenic acid],,1605,2170,,,
"N#C[C@@]1(c2ccc3c(N)ncnn23)O[C@H](CO)[C@@H](O)[C@H]1O [GS-441524, reference compound]",significantly more than the other compounds tested,,,36.20,70.3,"EC50 (FIPV (BJ-01); Alphacoronavirus 1, FIPV in CRFK cells, gradient dilution, CCK-8): 0.205 µg/mL"
C[S+](C)[O-] [DMSO],,,,,,MNTC (CRFK cells): 0.83%
O=C(O)/C=C/c1ccc(O)c(O)c1 [Caffeic acid],,53.43,58.8,,,
O=C1CCC[C@@H]2[C@H]3CCCN4CCC[C@@H](CN12)[C@@H]34 [Matrine],less than 20%,,,699.8,1110,
Cc1nc(C)c(C)nc1C.Cl [Ligustrazine hydrochloride],less than 20%,,,969.6,,"CC50 (CRFK cells; CRFK cells, 72 h, CCK-8): 2709 µg/mL"
CC1(C)[C@@H](O[C@H]2O[C@H](C(=O)O)[C@@H](O)[C@H](O)[C@H]2O[C@@H]2O[C@H](C(=O)O)[C@@H](O)[C@H](O)[C@H]2O)CC[C@]2(C)[C@H]3C(=O)C=C4[C@@H]5C[C@@](C)(C(=O)O)CC[C@]5(C)CC[C@@]4(C)[C@]3(C)CC[C@@H]12 [Glycyrrhizic acid],,,,1412,3320,
Cc1coc2c1C(=O)C(=O)c1c-2ccc2c1CCCC2(C)C [Tanshinone IIA],less than 20%,,,290.9,807,
